From patent US20100081679A1, “DIAMINOPYRIMIDINES AS FUNGICIDES” (Bayer CropScience AG, priority 2007, published 2010)
Marks after values point to notes of the source that are not given here.

experiment: logP determination via retention times, calibrated with unbranched alkan-2-ones; type: physicochemical; settings: HPLC on reversed-phase C 18, EEC Directive 79/831 Annex V.A8; method *: 40° C., 0.1% aqueous formic acid and acetonitrile, linear gradient 10% to 95% acetonitrile

SMILES	logP
CC(=O)Nc1cc(Nc2ncc(Cl)c(NCC3CC3)n2)ccc1O [compound 552]	1.29*
O=C(Nc1cccc(Nc2ncc(Br)c(NCC3CC3)n2)c1)Oc1ccccc1 [compound 466]	2.36*
CCC(=O)Nc1cccc(Nc2ncc(Cl)c(NCC3CC3)n2)c1 [compound 508]	1.61*
O=C1NC(=O)C(c2ccc(Nc3ncc(Cl)c(NCC4CC4)n3)cc2)N1 (stereo not shown) [compound 512]	1.27*
CN(C)C(=O)c1cccc(Nc2ncc(Cl)c(NCC3CC3)n2)c1 [compound 519]	1.58*
Brc1ccc(Nc2ncc(Br)c(NCC3CC3)n2)cc1 [compound 472]	2.84*
Brc1cnc(Nc2ccc(-n3ccnc3)cc2)nc1NC1CC1 [compound 501]	0.93*
CC(C)C(=O)Nc1ccc(Nc2ncc(Cl)c(NCC3CC3)n2)cc1 [compound 526]	1.73*

same assay, conditions: HPLC on reversed-phase C 18, method **: 43° C.; 0.1% aqueous phosphoric acid and acetonitrile; linear gradient 10% to 95% acetonitrile

SMILES	logP
COC(=O)Nc1ccc(Nc2ncc(Cl)c(N(C)CC3CC3)n2)cc1 [compound 970]	1.99**
COc1cc(Nc2ncc(C(F)(F)F)c(NC3CC3)n2)cc(OC)c1OC [compound 719]	2.56**

same assay, conditions: HPLC on reversed-phase C18, method **: 43° C.; mobile phase 0.1% aqueous phosphoric acid and acetonitrile; linear gradient 10% to 95% acetonitrile

SMILES	logP
O=C1CCCN1c1ccc(Nc2ncc(C(F)(F)F)c(NC3CC3)n2)cc1 [compound 342]	2.12**

same assay, conditions: HPLC on reversed-phase C18, method *: 40° C., 0.1% aqueous formic acid and acetonitrile, linear gradient 10% to 95% acetonitrile

SMILES	logP
CCOC(=O)Nc1ccc(Nc2ncc(Cl)c(NC3CC3)n2)cc1 [compound 977]	1.63*
Clc1cnc(Nc2ccccc2Cc2ccccc2)nc1NC1CC1 [compound 890]	2.21*
CC(=O)c1cc(Nc2ncc(Cl)c(NC3CC3)n2)ccc1O [Example 101]	1.65*
Fc1cc(Cl)ccc1Nc1ncc(Cl)c(NC2CC2)n1 [compound 947]	3.03*
O=C(Nc1ccc(Nc2ncc(Cl)c(NCC3CC3)n2)cc1)C(F)(F)F [compound 672]	2.02*
Cc1cc(Nc2ncc(Br)c(NC3CC3)n2)ccc1O [compound 116]	1.35*
CCCc1ccccc1Nc1ncc(Cl)c(NC2CC2)n1 [compound 912]	2.01*
OC(c1cccc(Nc2ncc(Cl)c(NC3CC3)n2)c1)C(F)(F)F (racemic) [compound 961]	1.79*
NS(=O)(=O)c1cc(Nc2ncc(Cl)c(NC3CC3)n2)ccc1Cl [compound 949]	1.66*
CN(C)S(=O)(=O)Oc1ccc(Nc2ncc(Cl)c(NC3CC3)n2)cc1 [Example 102]	2.08*
CCCOc1cccc(Nc2ncc(C(F)(F)F)c(NC3CC3)n2)c1 [compound 699]	3.92*
CSc1ccc(Nc2ncc(Cl)c(NC3CC3)n2)cc1N [compound 664]	1.69*
Clc1cnc(Nc2ccc3c(c2)OCO3)nc1NCC1CC1 [compound 695]	1.75*
CSc1cccc(Nc2ncc(Cl)c(NCC3CC3)n2)c1 [compound 119]	2.27*
Cc1ccc(C)c(Nc2ncc(Cl)c(NC3CC3)n2)c1 [compound 935]	1.83*
FC(F)Sc1ccc(Nc2ncc(Br)c(NC3CC3)n2)cc1 [Example 104]	2.99*
FC(F)(F)c1cccc(Nc2ncc(Cl)c(NC3CC3)n2)c1 [compound 950]	3.03*

same assay, conditions: HPLC on reversed-phase C18, method *: 40° C.; mobile phase 0.1% aqueous formic acid and acetonitrile; linear gradient 10% to 95% acetonitrile

SMILES	logP
FC(F)(F)Oc1cccc(Nc2ncc(Cl)c(NC3CC3)n2)c1 [compound 300]	3.18*
FC(F)(F)c1ccccc1Nc1ncc(Cl)c(NC2CC2)n1 [compound 276]	2.58*
COc1cccc(Nc2ncc(Br)c(NC3CC3)n2)c1 [compound 343]	1.9*
CN(C)C(=O)c1ccc(Nc2ncc(Br)c(NC3CC3)n2)cc1 [compound 351]	1.56*
N#Cc1cccc(Nc2ncc(Cl)c(NC3CC3)n2)c1 [compound 278]	2.13*
Cc1cc(C)cc(Nc2ncc(Cl)c(NC3CC3)n2)c1 [compound 274]	2.13*
CC(C)OC(=O)Nc1cccc(Nc2ncc(Cl)c(NC3CC3)n2)c1 [compound 302]	1.99*
COC(=O)Nc1cccc(Nc2ncc(Br)c(NC3CC3)n2)c1 [compound 309]	1.61*

same assay, conditions: HPLC on reversed-phase C18 column (EEC Directive 79/831 Annex V.A8); method *: 40° C.; 0.1% aqueous formic acid and acetonitrile; linear gradient 10% to 95% acetonitrile

SMILES	logP
COc1cc(Nc2ncc(Cl)c(NC3CC3)n2)ccc1F [compound 259]	1.9*
COc1cccc(Nc2ncc(C(F)(F)F)c(NCC3CC3)n2)c1 [compound 199]	2.91*
O=C1CCCN1c1cccc(Nc2ncc(C(F)(F)F)c(NC3CC3)n2)c1 [compound 255]	2.23*
O=S(=O)(Cc1cccc(Nc2ncc(Cl)c(NC3CC3)n2)c1)N1CCOCC1 [compound 261]	1.62*
CCOC(=O)Cc1ccc(Nc2ncc(Cl)c(NC3CC3)n2)cc1 [compound 247]	1.99*

same assay, conditions: HPLC reversed-phase C 18, EEC Directive 79/831 Annex V.A8; method **: 43° C., 0.1% aqueous phosphoric acid and acetonitrile, linear gradient 10% to 95% acetonitrile

SMILES	logP
CON(C(C)=O)c1cccc(Nc2ncc(Cl)c(NC3CC3)n2)c1 [compound 850]	1.57**

same assay, conditions: HPLC reversed-phase C 18, EEC Directive 79/831 Annex V.A8; method *: 40° C., 0.1% aqueous formic acid and acetonitrile, linear gradient 10% to 95% acetonitrile

SMILES	logP
N#CCc1cccc(Nc2ncc(Cl)c(NCC3CC3)n2)c1 [compound 821]	1.81*
CO/N=C(\C)Cc1cccc(Nc2ncc(Cl)c(NC3CC3)n2)c1 [compound 854]	2.2*
N#CCc1cc(Nc2ncc(Cl)c(NC3CC3)n2)ccc1F [compound 813]	1.76*
CC(C)(C)c1cccc(Nc2ncc(Cl)c(NC3CC3)n2)c1 [compound 778]	2.9*
O=C(O)CCc1cccc(Nc2ncc(Cl)c(NC3CC3)n2)c1 [compound 795]	1.09*
CSC(C)c1cccc(Nc2ncc(C(F)(F)F)c(NCC3CC3)n2)c1 (stereo not shown) [compound 827]	3.95*

same assay, conditions: method **: HPLC reversed-phase C 18, 43° C., 0.1% aqueous phosphoric acid and acetonitrile, linear gradient 10% to 95% acetonitrile

SMILES	logP
Fc1cnc(Nc2ccccc2)nc1NC1CC1 [compound 42]	1.45**
O=C1CCCN1c1ccc(Nc2ncc(Br)c(NCC3CC3)n2)cc1 [compound 457]	1.59**
CC(=O)c1ccc(Nc2ncc(Cl)c(NC3CC3)n2)cc1.Cl [Example 45]	1.99**

same assay, conditions: method **: HPLC reversed-phase C 18, temperature 43° C.; mobile phase 0.1% aqueous phosphoric acid and acetonitrile; linear gradient 10% to 95% acetonitrile

SMILES	logP
CC(=O)Nc1cccc(Nc2ncc(C(F)(F)F)c(NC3CC3)n2)c1 [compound 649]	1.77**
CNC(=O)c1ccc(Nc2ncc(C(F)(F)F)c(NC3CC3)n2)cc1 [compound 651]	1.81**

same assay, conditions: method **: HPLC, reversed-phase C 18, 43° C., mobile phase 0.1% aqueous phosphoric acid and acetonitrile, linear gradient from 10% to 95% acetonitrile

SMILES	logP
CSc1cccc(Nc2ncc(Cl)c(NC3CC3(C)C)n2)c1 (stereo not shown) [compound 1029]	3.07**

same assay, conditions: method *: HPLC reversed-phase C18, 40° C., 0.1% aqueous formic acid and acetonitrile, linear gradient 10% to 95% acetonitrile

SMILES	logP
N#Cc1cnc(Nc2ccccc2)nc1NC1CC1 [compound 40]	2.44*
CC(C)(C)C(=O)Cc1ccc(Nc2ncc(Cl)c(NC3CC3)n2)cc1 [Example 59]	2.3*
O=C1CCCN1c1ccc(Nc2ncc(Br)c(NCC3CC3)n2)cc1 [compound 457]	1.66*;
Cc1cnc(Nc2cccc(Cl)c2)nc1NC1CC1 [compound 57]	1.8*
CNC(=O)c1cccc(Nc2ncc(Br)c(NC3CC3)n2)c1 [compound 383]	1.39*
CCSc1cccc(Nc2ncc(Cl)c(NC3CC3)n2)c1 [compound 436]	2.72*
CNC(=O)c1ccc(Nc2ncc(Br)c(NC3CC3)n2)cc1 [compound 382]	1.39*
Clc1cnc(Nc2ccccc2)nc1NC1CC1 [Example 70]	1.28*
OCc1cccc(Nc2ncc(Cl)c(NC3CC3)n2)c1 [Example 82]	1.22*
O=S(=O)(c1cccc(Nc2ncc(Br)c(NCC3CC3)n2)c1)N1CCCCC1 [compound 454]	2.29*

same assay, conditions: method *: HPLC reversed-phase C 18, temperature 40° C.; mobile phase 0.1% aqueous formic acid and acetonitrile; linear gradient 10% to 95% acetonitrile

SMILES	logP
N#Cc1ccc(Nc2ncc(F)c(NC3CC3)n2)cc1 [compound 575]	1.73*
CC(=O)Nc1cccc(Nc2ncc(C(F)(F)F)c(NC3CC3)n2)c1 [compound 649]	1.78*;
CSc1cccc(Nc2ncc(F)c(NC3CC3)n2)c1 [compound 586]	1.73*
Fc1cccc(Nc2ncc(Cl)c(NC3CC3)n2)c1 [compound 620]	3.15*
CCC(=O)Nc1cccc(Nc2ncc(C#N)c(NC3CC3)n2)c1 [compound 607]	1.94*
O=C(NCC(F)(F)F)c1cccc(Nc2ncc(Cl)c(NC3CC3)n2)c1 [compound 630]	1.8*
CNC(=O)c1ccc(Nc2ncc(C(F)(F)F)c(NC3CC3)n2)cc1 [compound 651]	1.78*;
O=S(=O)(c1cccc(Nc2ncc(C(F)(F)F)c(NC3CC3)n2)c1)N1CCCCC1 [compound 654]	2.77*
CS(=O)(=O)c1ccc(Nc2ncc(C(F)(F)F)c(NC3CC3)n2)cc1 [compound 644]	2.36*
N#Cc1ccc(Nc2ncc(C(F)(F)F)c(NC3CC3)n2)cc1 [compound 642]	2.99*
CSc1ccc(Nc2ncc(Cl)c(NCC3CC3)n2)cc1Cl [compound 626]	3.15*
O=C(Nc1ccc(Nc2ncc(F)c(NC3CC3)n2)cc1)C(F)(F)F [compound 583]	1.58*
CC(=O)c1cccc(Nc2ncc(C#N)c(NC3CC3)n2)c1 [compound 610]	2.23*

same assay, conditions: method *: HPLC, reversed-phase C 18, 40° C., mobile phase 0.1% aqueous formic acid and acetonitrile, linear gradient from 10% to 95% acetonitrile

SMILES	logP
CCN(CC)C(=O)c1ccc(Nc2ncc(Cl)c(NC3CC3)n2)cc1 [compound 984]	1.84*
CCSC(C)c1cccc(Nc2ncc(C(F)(F)F)c(NC3CC3)n2)c1 (stereo not shown) [compound 987]	4.19*
CSc1cccc(Nc2ncc(Cl)c(NC3CC3(C)C)n2)c1 (stereo not shown) [compound 1029]	3.07*;
CCOC(=O)c1cc(Nc2ncc(Cl)c(NC3CC3)n2)ccc1Cl [compound 990]	2.84*

same assay, conditions: pH 2.3; read-out: logP (pH2.3)

SMILES	chromatographic logP
Clc1ncc(Br)c(NCC2CC2)n1 [5-bromo-2-chloro-N-(cyclopropylmethyl)pyrimidine-4-amine]	2.69
